Assay results as given in ChEMBL document CHEMBL1201862, “PubChem BioAssay data set” (2004).
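Five concentrations, 48 hours, 96-well plates. GI50 is the concentration that inhibits growth by half.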 Activity calls are given as the source filed them. No stated cut-off is given here; in the data, active = GI50 up to about 1.1 µM and inactive = higher.

Assays:
Assay in all cases: NCI tumour cell line growth inhibition, 48 h
HL-60 = system: HL-60
MOLT-4 = system: MOLT-4
K562 = system: K562
DMS-273 = system: DMS-273
SK-OV-3 = system: SK-OV-3
SK-MEL-28 = system: SK-MEL-28
SW-620 = system: SW-620
NCI-H226 = system: NCI-H226
SNB-75 = system: SNB-75
DLD-1 = system: DLD-1
SR = system: SR
DMS-114 = system: DMS-114
M14 = system: M14
RPMI-8226 = system: RPMI-8226
UACC-257 = system: UACC-257
SK-MEL-5 = system: SK-MEL-5
SK-MEL-2 = system: SK-MEL-2
OVCAR-5 = system: OVCAR-5
COLO 205 = system: COLO 205
KM12 = system: KM12
TK-10 = system: TK-10
NCI-H23 = system: NCI-H23
HCT-116 = system: HCT-116
UACC-62 = system: UACC-62
NCI-H460 = system: NCI-H460
OVCAR-3 = system: OVCAR-3
CAKI-1 = system: CAKI-1
SN12C = system: SN12C
OVCAR-4 = system: OVCAR-4
SF-268 = system: SF-268
HCC 2998 = system: HCC 2998
HCT-15 = system: HCT-15
NCI-H522 = system: NCI-H522
LXFL 529 = system: LXFL 529
UO-31 = system: UO-31
ACHN = system: ACHN
HOP-62 = system: HOP-62
M19-MEL = system: M19-MEL
A549 = system: A549
SNB-19 = system: SNB-19
CCRF-CEM = system: CCRF-CEM
SF-295 = system: SF-295
OVCAR-8 = system: OVCAR-8
EKVX = system: EKVX
786-0 = system: 786-0
LOX IMVI = system: LOX IMVI
IGROV-1 = system: IGROV-1
Malme-3M = system: Malme-3M
SF-539 = system: SF-539
A498 = system: A498
HT-29 = system: HT-29
U-251 = system: U-251
NCI/ADR-RES = system: NCI/ADR-RES
SNB-78 = system: SNB-78
HOP-18 = system: HOP-18
RXF 393 = system: RXF 393
HOP-92 = system: HOP-92
MCF7 = system: MCF7
KM-20L2 = system: KM-20L2
DU-145 = system: DU-145
PC-3 = system: PC-3
BT-549 = system: BT-549
MDA-MB-231 = system: MDA-MB-231
MDA-N = system: MDA-N
Hs-578T = system: Hs-578T
MDA-MB-435 = system: MDA-MB-435
T47D = system: T47D

Structure (SMILES): Cc1ccc(C(=O)N2CCCCC2)cc1/N=N/N(C)C
- GI50 (HL-60): > 100 µM (inactive)
- GI50 (MOLT-4): > 100 µM (inactive)
- GI50 (K562): > 100 µM (inactive)
- GI50 (DMS-273): > 100 µM (inactive)
- GI50 (SK-OV-3): > 10 µM (inactive)
- GI50 (SK-MEL-28): > 100 µM (inactive)
- GI50 (SW-620): > 100 µM (inactive)
- GI50 (NCI-H226): > 100 µM (inactive)
- GI50 (SNB-75): > 100 µM (inactive)
- GI50 (DLD-1): > 100 µM (inactive)
- GI50 (SR): > 100 µM (inactive)
- GI50 (DMS-114): > 100 µM (inactive)
- GI50 (M14): > 100 µM (inactive)
- GI50 (RPMI-8226): > 100 µM (inactive)
- GI50 (UACC-257): > 100 µM (inactive)
- GI50 (SK-MEL-5): > 100 µM (inactive)
- GI50 (SK-MEL-2): > 100 µM (inactive)
- GI50 (OVCAR-5): > 100 µM (inactive)
- GI50 (COLO 205): > 100 µM (inactive)
- GI50 (KM12): > 100 µM (inactive)
- GI50 (TK-10): > 100 µM (inactive)
- GI50 (NCI-H23): > 100 µM (inactive)
- GI50 (HCT-116): > 100 µM (inactive)
- GI50 (UACC-62): > 100 µM (inactive)
- GI50 (NCI-H460): > 100 µM (inactive)
- GI50 (OVCAR-3): > 100 µM (inactive)
- GI50 (CAKI-1): > 100 µM (inactive)
- GI50 (SN12C): > 100 µM (inactive)
- GI50 (OVCAR-4): > 100 µM (inactive)
- GI50 (SF-268): > 100 µM (inactive)
- GI50 (HCC 2998): > 100 µM (inactive)
- GI50 (HCT-15): > 100 µM
- GI50 (NCI-H522): > 100 µM (inactive)
- GI50 (LXFL 529): > 100 µM (inactive)
- GI50 (UO-31): > 100 µM (inactive)
- GI50 (ACHN): > 100 µM (inactive)
- GI50 (HOP-62): > 100 µM (inactive)
- GI50 (M19-MEL): > 100 µM (inactive)
- GI50 (A549): > 100 µM (inactive)
- GI50 (SNB-19): > 100 µM (inactive)
- GI50 (CCRF-CEM): > 100 µM (inactive)
- GI50 (SF-295): > 100 µM (inactive)
- GI50 (OVCAR-8): > 100 µM (inactive)
- GI50 (EKVX): > 100 µM (inactive)
- GI50 (786-0): > 100 µM (inactive)
- GI50 (LOX IMVI): > 100 µM (inactive)
- GI50 (IGROV-1): > 100 µM (inactive)
- GI50 (Malme-3M): > 100 µM (inactive)
- GI50 (SF-539): > 100 µM (inactive)
- GI50 (A498): > 100 µM (inactive)
- GI50 (HT-29): > 100 µM (inactive)

Structure (SMILES): CC(C)=CCc1c(O)ccc2ccc(=O)oc12 [OSTHENOL]
- GI50 (HL-60): 28.2 µM (inactive)
- GI50 (MOLT-4): 26.9 µM (inactive)
- GI50 (U-251): 21.9 µM (inactive)
- GI50 (K562): 37.6 µM (inactive)
- GI50 (DMS-273): 63.7 µM (inactive)
- GI50 (SK-OV-3): > 100 µM (inactive)
- GI50 (SK-MEL-28): 49.4 µM (inactive)
- GI50 (SW-620): > 100 µM (inactive)
- GI50 (NCI-H226): 47.6 µM (inactive)
- GI50 (SNB-75): 54.5 µM (inactive)
- GI50 (DLD-1): > 100 µM (inactive)
- GI50 (DMS-114): 27.9 µM (inactive)
- GI50 (RPMI-8226): 26.7 µM (inactive)
- GI50 (UACC-257): 33 µM (inactive)
- GI50 (SK-MEL-5): 15.3 µM (inactive)
- GI50 (SK-MEL-2): 45.7 µM (inactive)
- GI50 (OVCAR-5): > 31.6 µM (inactive)
- GI50 (COLO 205): > 100 µM (inactive)
- GI50 (NCI/ADR-RES): 20.9 µM (inactive)
- GI50 (SNB-78): 32 µM (inactive)
- GI50 (KM12): > 75.5 µM (inactive)
- GI50 (NCI-H23): 55.5 µM (inactive)
- GI50 (HCT-116): 57.4 µM (inactive)
- GI50 (UACC-62): 44.6 µM (inactive)
- GI50 (NCI-H460): > 73.5 µM (inactive)
- GI50 (OVCAR-3): 60.1 µM (inactive)
- GI50 (CAKI-1): > 61.5 µM (inactive)
- GI50 (SN12C): > 91.8 µM (inactive)
- GI50 (OVCAR-4): 37.8 µM (inactive)
- GI50 (SF-268): 33.7 µM (inactive)
- GI50 (HCC 2998): 45.8 µM (inactive)
- GI50 (HCT-15): 60.1 µM
- GI50 (NCI-H522): 48.2 µM (inactive)
- GI50 (UO-31): 29.4 µM (inactive)
- GI50 (HOP-18): 43.6 µM (inactive)
- GI50 (M19-MEL): 47.1 µM (inactive)
- GI50 (A549): 5.83 µM (inactive)
- GI50 (RXF 393): 38.5 µM (inactive)
- GI50 (SNB-19): > 51.9 µM (inactive)
- GI50 (CCRF-CEM): 33.9 µM (inactive)
- GI50 (SF-295): 45.6 µM (inactive)
- GI50 (OVCAR-8): 53 µM (inactive)
- GI50 (EKVX): 51.6 µM (inactive)
- GI50 (HOP-92): 38.4 µM (inactive)
- GI50 (LOX IMVI): 51.5 µM (inactive)
- GI50 (MCF7): 34.9 µM (inactive)
- GI50 (IGROV-1): > 68.5 µM (inactive)
- GI50 (Malme-3M): 38.2 µM (inactive)
- GI50 (SF-539): 24 µM (inactive)
- GI50 (A498): 54.8 µM (inactive)
- GI50 (HT-29): > 100 µM (inactive)
- GI50 (KM-20L2): > 100 µM (inactive)

Structure (SMILES): COCOC1/C=C/CCCCC2=C(C)C=C(C1)O2 (configuration not stated)
- GI50 (HL-60): 45.4 µM (inactive)
- GI50 (MOLT-4): > 100 µM (inactive)
- GI50 (U-251): > 100 µM (inactive)
- GI50 (K562): > 100 µM (inactive)
- GI50 (DU-145): > 100 µM (inactive)
- GI50 (SK-OV-3): > 100 µM (inactive)
- GI50 (SK-MEL-28): > 100 µM (inactive)
- GI50 (SW-620): > 100 µM (inactive)
- GI50 (NCI-H226): > 100 µM (inactive)
- GI50 (SNB-75): > 100 µM (inactive)
- GI50 (SR): > 100 µM (inactive)
- GI50 (M14): > 100 µM (inactive)
- GI50 (RPMI-8226): > 100 µM (inactive)
- GI50 (PC-3): > 100 µM (inactive)
- GI50 (UACC-257): > 100 µM (inactive)
- GI50 (BT-549): > 100 µM (inactive)
- GI50 (SK-MEL-5): > 100 µM (inactive)
- GI50 (SK-MEL-2): > 100 µM (inactive)
- GI50 (OVCAR-5): > 100 µM (inactive)
- GI50 (MDA-MB-231): > 100 µM (inactive)
- GI50 (COLO 205): > 100 µM (inactive)
- GI50 (NCI/ADR-RES): > 100 µM (inactive)
- GI50 (MDA-N): > 100 µM (inactive)
- GI50 (KM12): > 100 µM (inactive)
- GI50 (TK-10): > 100 µM (inactive)
- GI50 (NCI-H23): > 100 µM (inactive)
- GI50 (HCT-116): > 100 µM (inactive)
- GI50 (UACC-62): > 100 µM (inactive)
- GI50 (NCI-H460): > 100 µM (inactive)
- GI50 (Hs-578T): > 100 µM (inactive)
- GI50 (OVCAR-3): > 100 µM (inactive)
- GI50 (CAKI-1): > 100 µM (inactive)
- GI50 (SN12C): > 100 µM (inactive)
- GI50 (OVCAR-4): > 100 µM (inactive)
- GI50 (SF-268): > 100 µM (inactive)
- GI50 (HCC 2998): > 100 µM (inactive)
- GI50 (HCT-15): > 100 µM
- GI50 (NCI-H522): > 100 µM (inactive)
- GI50 (UO-31): > 100 µM (inactive)
- GI50 (ACHN): > 100 µM (inactive)
- GI50 (HOP-62): > 100 µM (inactive)
- GI50 (MDA-MB-435): > 100 µM (inactive)
- GI50 (A549): > 100 µM (inactive)
- GI50 (RXF 393): > 100 µM (inactive)
- GI50 (SNB-19): > 100 µM (inactive)
- GI50 (CCRF-CEM): > 100 µM (inactive)
- GI50 (T47D): > 100 µM (inactive)
- GI50 (SF-295): > 100 µM (inactive)
- GI50 (OVCAR-8): > 100 µM (inactive)
- GI50 (EKVX): > 100 µM (inactive)
- GI50 (HOP-92): > 100 µM (inactive)
- GI50 (786-0): > 100 µM (inactive)
- GI50 (LOX IMVI): > 100 µM (inactive)
- GI50 (MCF7): > 100 µM (inactive)
- GI50 (IGROV-1): > 100 µM (inactive)
- GI50 (Malme-3M): > 100 µM (inactive)
- GI50 (SF-539): > 100 µM (inactive)
- GI50 (A498): > 100 µM (inactive)
- GI50 (HT-29): > 100 µM (inactive)
